Data taken from ChEMBL document CHEMBL1201862, “PubChem BioAssay data set” (2004).
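Compound exposure: 48 hours, 5 concentrations, 96-well plates. GI50 = concentration required for 50% inhibition of growth.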 Activity calls are given as the source filed them. Rule as the data show it: active = GI50 up to about 1.1 µM and inactive = higher.

How the values were obtained:
Assay in all cases: inhibition of tumour cell growth, NCI panel, 48 h
[1] = test system: RPMI-8226
[2] = test system: ACHN
[3] = test system: NCI-H23
[4] = test system: HT-29
[5] = test system: MCF7
[6] = test system: IGROV-1
[7] = test system: MDA-MB-435
[8] = test system: Hs-578T
[9] = test system: SF-539
[10] = test system: SK-MEL-5
[11] = test system: HL-60
[12] = test system: UACC-257
[13] = test system: SF-268
[14] = test system: M14
[15] = test system: KM12
[16] = test system: NCI-H226
[17] = test system: HOP-62
[18] = test system: PC-3
[19] = test system: MDA-MB-231
[20] = test system: HCT-116
[21] = test system: NCI/ADR-RES
[22] = test system: COLO 205
[23] = test system: SN12C
[24] = test system: A498
[25] = test system: MDA-N
[26] = test system: U-251
[27] = test system: Malme-3M
[28] = test system: EKVX
[29] = test system: UACC-62
[30] = test system: OVCAR-8
[31] = test system: 786-0
[32] = test system: OVCAR-3
[33] = test system: SNB-75
[34] = test system: OVCAR-4
[35] = test system: SF-295
[36] = test system: CCRF-CEM
[37] = test system: SK-OV-3
[38] = test system: SK-MEL-28
[39] = test system: HCT-15
[40] = test system: NCI-H522
[41] = test system: CAKI-1
[42] = test system: NCI-H460
[43] = test system: UO-31
[44] = test system: MOLT-4
[45] = test system: OVCAR-5
[46] = test system: HCC 2998
[47] = test system: DU-145
[48] = test system: BT-549
[49] = test system: SW-620
[50] = test system: TK-10
[51] = test system: A549
[52] = test system: SK-MEL-2
[53] = test system: SNB-19
[54] = test system: T47D
[55] = test system: RXF 393
[56] = test system: K562
[57] = test system: LOX IMVI

Cc1[nH]c2c(c1Cc1ccccc1)C1=NC=C(O)NN1C=N2
GI50 [1]: 51.5 µM (inactive) | GI50 [2]: 44.3 µM (inactive) | GI50 [3]: 53.7 µM (inactive) | GI50 [4]: 80 µM (inactive) | GI50 [5]: 14.9 µM (inactive) | GI50 [6]: 10 µM (inactive) | GI50 [7]: > 100 µM (inactive) | GI50 [8]: 67.5 µM (inactive) | GI50 [9]: 86.9 µM (inactive) | GI50 [10]: 70 µM (inactive) | GI50 [11]: > 100 µM (inactive) | GI50 [12]: > 100 µM (inactive) | GI50 [13]: 94.2 µM (inactive) | GI50 [14]: > 100 µM (inactive) | GI50 [15]: > 100 µM (inactive) | GI50 [16]: > 100 µM (inactive) | GI50 [17]: > 100 µM (inactive) | GI50 [18]: 82.2 µM (inactive) | GI50 [19]: > 100 µM (inactive) | GI50 [20]: 85.7 µM (inactive) | GI50 [21]: > 100 µM (inactive) | GI50 [22]: 22 µM (inactive) | GI50 [23]: > 100 µM (inactive) | GI50 [24]: > 100 µM (inactive) | GI50 [25]: > 100 µM (inactive) | GI50 [26]: 70.1 µM (inactive) | GI50 [27]: > 100 µM (inactive) | GI50 [28]: > 100 µM (inactive) | GI50 [29]: 65.6 µM (inactive) | GI50 [30]: 51.4 µM (inactive) | GI50 [31]: > 100 µM (inactive) | GI50 [32]: 60.4 µM (inactive) | GI50 [33]: 10.3 µM (inactive) | GI50 [34]: > 100 µM (inactive) | GI50 [35]: 62.4 µM (inactive) | GI50 [36]: 20.5 µM (inactive) | GI50 [37]: > 100 µM (inactive) | GI50 [38]: > 100 µM (inactive) | GI50 [39]: 45.3 µM | GI50 [40]: 43.7 µM (inactive) | GI50 [41]: > 100 µM (inactive) | GI50 [42]: 36.4 µM (inactive) | GI50 [43]: > 100 µM (inactive) | GI50 [44]: 29 µM (inactive) | GI50 [45]: > 100 µM (inactive) | GI50 [46]: 53.8 µM (inactive) | GI50 [47]: > 100 µM (inactive) | GI50 [48]: 49 µM (inactive) | GI50 [49]: 21.5 µM (inactive) | GI50 [50]: 74.1 µM (inactive) | GI50 [51]: > 100 µM (inactive) | GI50 [52]: > 100 µM (inactive) | GI50 [53]: > 100 µM (inactive) | GI50 [54]: 14.4 µM (inactive) | GI50 [55]: 16.6 µM (inactive)

Cc1cc(S(=O)(=O)Nc2nncn2-c2ccc(Cl)cc2)c(S)cc1Cl
GI50 [56]: > 10 µM (inactive) | GI50 [1]: > 10 µM (inactive) | GI50 [2]: > 10 µM (inactive) | GI50 [3]: > 10 µM (inactive) | GI50 [4]: > 10 µM (inactive) | GI50 [5]: > 10 µM (inactive) | GI50 [6]: > 10 µM (inactive) | GI50 [7]: > 10 µM (inactive) | GI50 [8]: > 10 µM (inactive) | GI50 [9]: > 10 µM (inactive) | GI50 [57]: > 10 µM (inactive) | GI50 [10]: > 10 µM (inactive) | GI50 [11]: > 10 µM (inactive) | GI50 [12]: > 10 µM (inactive) | GI50 [13]: > 10 µM (inactive) | GI50 [14]: > 10 µM (inactive) | GI50 [15]: > 10 µM (inactive) | GI50 [16]: > 10 µM (inactive) | GI50 [17]: > 10 µM (inactive) | GI50 [18]: > 10 µM (inactive) | GI50 [19]: > 10 µM (inactive) | GI50 [20]: > 10 µM (inactive) | GI50 [21]: > 10 µM (inactive) | GI50 [22]: > 10 µM (inactive) | GI50 [23]: > 10 µM (inactive) | GI50 [24]: > 10 µM (inactive) | GI50 [25]: > 10 µM (inactive) | GI50 [26]: > 10 µM (inactive) | GI50 [27]: > 10 µM (inactive) | GI50 [28]: > 10 µM (inactive) | GI50 [29]: > 10 µM (inactive) | GI50 [30]: > 10 µM (inactive) | GI50 [31]: > 10 µM (inactive) | GI50 [32]: > 10 µM (inactive) | GI50 [33]: > 10 µM (inactive) | GI50 [34]: > 10 µM (inactive) | GI50 [35]: > 10 µM (inactive) | GI50 [36]: > 10 µM (inactive) | GI50 [37]: > 10 µM (inactive) | GI50 [38]: > 10 µM (inactive) | GI50 [39]: > 10 µM | GI50 [40]: > 10 µM (inactive) | GI50 [41]: > 10 µM (inactive) | GI50 [42]: > 10 µM (inactive) | GI50 [44]: > 10 µM (inactive) | GI50 [45]: > 10 µM (inactive) | GI50 [46]: > 10 µM (inactive) | GI50 [47]: > 10 µM (inactive) | GI50 [48]: > 10 µM (inactive) | GI50 [49]: > 10 µM (inactive) | GI50 [50]: > 10 µM (inactive) | GI50 [51]: > 10 µM (inactive) | GI50 [52]: > 10 µM (inactive) | GI50 [53]: > 10 µM (inactive) | GI50 [54]: > 10 µM (inactive) | GI50 [55]: > 10 µM (inactive)
